Results published in patent EP4420677A1, “VACCINES AGAINST TERT-POSITIVE TUMORS” (Altevax, priority 2023, dated 2024).
Peptide text beside a SMILES is read from it.

Legend:
[1] = Peptide stability in solution at pH 7.4 (HPLC peak area vs reference); format: physicochemical; details: for Stability of peptides (ratio of the pick area on the indicated day/ pic area of a fresh solution of the same peptide): 7-day incubation in solution at pH7.4, - 20°C; for stability in solution (in words): in solution at physiological pH (pH 7.4)
Protocol: To develop a relevant vaccine, it is necessary to have a proper drug substance stability. To assess stability, the peptides were diluted at à 0,5 mg/mL in water, adjusted at pH 7.4, frozen at -20° C, and analyzed by HPLC (Hypersil GOLD C8 15cm x 4.6mm x 5µm (ThermoFisher) on the indicated day, using an elution buffer CH3CN 15%, TFA 0,1%. The pic area was compared to a reference standard.
Indeed, after 7 days at -20°C, the pic of SEQ ID NO: 4 was reduced by 53%, while SEQ ID NO: 7 was stable (> 95%) for at least 3 months at pH7.4 at -20°C, and at least 7 days at room temperature. Table 4: Stability of peptides after a 7-day incubation period in solution at pH7.4 at different temperature (ratio of the pick area on the indicated day/ pic area of a fresh solution of the same peptide)

[2] = as above; format: physicochemical
[3] = format: binding; details: pH 7.5
Protocol: L-Dopa alone (0.8mg/ml) was polymerized into melanin for 2h at pH 8.5 and 60°C under agitation. The reaction mixture was then filtered on a 10kDa filter, and the retentate containing the synthetic melanin was resuspended at pH 7.5 in phosphate buffer. Peptides were then added (at the weight ratio melanin/peptide of 2) and the mixtures were incubated for 18 hours at room temperature. Tricine-SDS-PAGE analysis was performed as described in Carpentier; 2017 (op. cit.). Briefly, samples (peptide-Mel or peptide alone) were loaded on acrylamide gels. Following electrophoresis, the gels were stained with Coomassie Brilliant Blue R-250 and imaged with the ChemiDoc XRS+ system (Bio-Rad Laboratory), allowing the quantification of the free peptide in the gel. The binding of peptides to melanin was expressed as the ratio: [amount of unbound peptide in samples Peptide-Mel / amount of peptides in control samples containing peptides alone]. […] Table 3: Binding of peptides on synthetic melanin. L-Dopa (0.8mg/ml) underwent an oxidative polymerization at pH 8.5 in aerobic conditions for 2 hours at 60°C. The reaction mixture was then filtered on a 10kDa filter, and the retentate containing the synthetic melanin was resuspended at pH 7.5. […] The percentage of peptides that bound to melanin was then quantified with SPS-page analysis

[4] = Filterability and precipitation of the mixture peptide + melanin; format: physicochemical; details: mixture peptide + melanine in isotonic saline
Text: Filterability of a medical formulation on a 0.2µ filter is important to achieve a sterile solution.

[5] = 7-day incubation in solution at pH7.4, 4°C
[6] = 7-day incubation in solution at pH7.4, Room temperature

| Stability of peptides (ratio of the pick area on the indicated day/ pic area of a fresh solution of the same peptide) [1] [%] | stability in solution (in words) [1] | Stability of peptides (ratio of the pick area on the indicated day/ pic area of a fresh solution of the same peptide) [2, 5] [%] | Stability of peptides (ratio of the pick area on the indicated day/ pic area of a fresh solution of the same peptide) [2, 6] [%] | percentage of peptides that bound to melanin [3] [%] | stable (remaining peptide) ([1]; at least 3 months at pH7.4 at -20°C) [%] | stable (remaining peptide) ([1]; at least 7 days at room temperature, pH7.4) [%] | time remaining in suspension [4] | Structure (SMILES) |
| --- | --- | --- | --- | --- | --- | --- | --- | --- |
| 23 | highly unstable | 25 | 3 | – | – | – | – | CC[C@H](C)[C@H](NC(=O)CNC(=O)[C@@H](NC(=O)[C@H](CO)NC(=O)[C@H](CCC(N)=O)NC(=O)[C@H](CC(C)C)NC(=O)[C@H](CCCCN)NC(=O)[C@H](CO)NC(=O)[C@H](Cc1c[nH]c2ccccc12)NC(=O)[C@@H](NC(=O)[C@H](CO)NC(=O)[C@H](CCCCN)NC(=O)[C@@H](N)CCSC)C(C)C)[C@@H](C)CC)C(=O)N[C@@H](CCCNC(=N)N)C(=O)N[C@@H](CCC(N)=O)C(=O)N[C@@H](Cc1c[nH]cn1)C(=O)O [SEQ ID NO: 5, MKSVWSKLQSIGIRQH] (H-MKSVWSKLQSIGIRQH-OH) |
| 100 | – | 98 | 92 | – | – | – | – | CC[C@H](C)[C@H](NC(=O)CNC(=O)[C@@H](NC(=O)[C@H](CO)NC(=O)[C@H](CCC(N)=O)NC(=O)[C@H](CC(C)C)NC(=O)[C@H](CCCCN)NC(=O)[C@H](CO)NC(=O)[C@H](Cc1c[nH]c2ccccc12)NC(=O)[C@@H](NC(=O)[C@H](CO)NC(=O)[C@@H](N)CCCCN)C(C)C)[C@@H](C)CC)C(=O)N[C@@H](CCCNC(=N)N)C(=O)N[C@@H](CCC(N)=O)C(=O)N[C@@H](Cc1c[nH]cn1)C(=O)O [SEQ ID NO: 1, KSVWSKLQSIGIRQH, reference compound] |
| 47 | highly unstable | – | – | 59 | – | – | – | CC[C@H](C)[C@H](NC(=O)CNC(=O)[C@@H](NC(=O)[C@H](CO)NC(=O)[C@H](CCC(N)=O)NC(=O)[C@H](CC(C)C)NC(=O)[C@H](CCCCN)NC(=O)[C@H](CO)NC(=O)[C@H](Cc1c[nH]c2ccccc12)NC(=O)[C@@H](NC(=O)[C@H](CO)NC(=O)[C@H](CCCCN)NC(=O)[C@@H](N)CS)C(C)C)[C@@H](C)CC)C(=O)N[C@@H](CCCNC(=N)N)C(=O)N[C@@H](CCC(N)=O)C(=O)N[C@@H](Cc1c[nH]cn1)C(=O)O [SEQ ID NO: 4, CKSVWSKLQSIGIRQH] (H-CKSVWSKLQSIGIRQH-OH) |
| 100 | very stable | 100 | 100 | – | > 95 | > 95 | more than 18 hours | CC[C@H](C)[C@H](NC(=O)CNC(=O)[C@@H](NC(=O)[C@H](CO)NC(=O)[C@H](CCC(N)=O)NC(=O)[C@H](CC(C)C)NC(=O)[C@H](CCCCN)NC(=O)[C@H](CO)NC(=O)[C@H](Cc1c[nH]c2ccccc12)NC(=O)[C@@H](NC(=O)[C@H](CO)NC(=O)[C@H](CCCCN)NC(=O)[C@@H](N)CO)C(C)C)[C@@H](C)CC)C(=O)N[C@@H](CCCNC(=N)N)C(=O)N[C@@H](CCC(N)=O)C(=O)N[C@@H](Cc1c[nH]cn1)C(=O)O [SEQ ID NO: 7, SKSVWSKLQSIGIRQH] (H-SKSVWSKLQSIGIRQH-OH) |
